Experimental data: ChEMBL document CHEMBL2203207, “Inhibition of monoamine oxidase by derivatives of piperine, an alkaloid from the pepper plant Piper nigrum, for possible use in Parkinson's disease” (Bioorg Med Chem Lett, 2012)

Key:
[1] = target: T1, Amine oxidase [flavin-containing] A (Homo sapiens, UniProt P21397); assay: Inhibition of MAO-A assessed as inhibition of kyneuramine conversion to 4-hydroxyquinoline after 20 mins by fluorescence assay
T1 sequence (P21397 whole entry): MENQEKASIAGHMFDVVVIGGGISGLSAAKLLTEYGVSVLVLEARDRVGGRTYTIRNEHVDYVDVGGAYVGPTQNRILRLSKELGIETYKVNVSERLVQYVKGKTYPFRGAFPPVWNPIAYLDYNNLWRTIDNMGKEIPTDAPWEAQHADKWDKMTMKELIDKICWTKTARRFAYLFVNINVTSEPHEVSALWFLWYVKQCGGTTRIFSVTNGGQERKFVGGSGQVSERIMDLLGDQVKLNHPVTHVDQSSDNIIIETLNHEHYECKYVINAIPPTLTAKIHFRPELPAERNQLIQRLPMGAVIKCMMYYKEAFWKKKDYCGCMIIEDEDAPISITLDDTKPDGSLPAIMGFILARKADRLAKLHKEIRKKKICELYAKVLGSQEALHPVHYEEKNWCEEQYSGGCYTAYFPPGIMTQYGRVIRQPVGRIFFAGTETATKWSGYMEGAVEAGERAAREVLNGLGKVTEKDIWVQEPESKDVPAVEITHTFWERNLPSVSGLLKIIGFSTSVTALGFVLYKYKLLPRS

[2] = target: T2, Amine oxidase [flavin-containing] B (Homo sapiens, UniProt P27338); assay: Inhibition of MAO-B assessed as inhibition of kyneuramine conversion to 4-hydroxyquinoline after 20 mins by fluorescence assay
T2 sequence (P27338 whole entry): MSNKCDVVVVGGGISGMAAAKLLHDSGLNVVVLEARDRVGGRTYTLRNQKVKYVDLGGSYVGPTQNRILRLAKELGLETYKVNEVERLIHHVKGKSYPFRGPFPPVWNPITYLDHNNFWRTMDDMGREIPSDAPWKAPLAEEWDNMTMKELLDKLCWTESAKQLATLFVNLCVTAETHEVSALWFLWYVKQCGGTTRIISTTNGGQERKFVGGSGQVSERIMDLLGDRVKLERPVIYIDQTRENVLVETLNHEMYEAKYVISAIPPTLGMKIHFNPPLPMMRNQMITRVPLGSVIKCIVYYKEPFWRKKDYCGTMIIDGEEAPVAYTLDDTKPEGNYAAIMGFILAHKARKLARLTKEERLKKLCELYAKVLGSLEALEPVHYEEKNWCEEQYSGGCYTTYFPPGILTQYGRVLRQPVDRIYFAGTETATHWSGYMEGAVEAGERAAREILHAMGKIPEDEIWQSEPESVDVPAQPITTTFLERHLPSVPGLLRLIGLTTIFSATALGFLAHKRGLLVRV

[3] = target: T3, Albumin (Bos taurus, UniProt P02769); assay: Binding affinity to bovine serum albumin at 16 uM by fluorescence assay; assay type: ADME; settings: cattle, isolated protein
T3 sequence (P02769 whole entry): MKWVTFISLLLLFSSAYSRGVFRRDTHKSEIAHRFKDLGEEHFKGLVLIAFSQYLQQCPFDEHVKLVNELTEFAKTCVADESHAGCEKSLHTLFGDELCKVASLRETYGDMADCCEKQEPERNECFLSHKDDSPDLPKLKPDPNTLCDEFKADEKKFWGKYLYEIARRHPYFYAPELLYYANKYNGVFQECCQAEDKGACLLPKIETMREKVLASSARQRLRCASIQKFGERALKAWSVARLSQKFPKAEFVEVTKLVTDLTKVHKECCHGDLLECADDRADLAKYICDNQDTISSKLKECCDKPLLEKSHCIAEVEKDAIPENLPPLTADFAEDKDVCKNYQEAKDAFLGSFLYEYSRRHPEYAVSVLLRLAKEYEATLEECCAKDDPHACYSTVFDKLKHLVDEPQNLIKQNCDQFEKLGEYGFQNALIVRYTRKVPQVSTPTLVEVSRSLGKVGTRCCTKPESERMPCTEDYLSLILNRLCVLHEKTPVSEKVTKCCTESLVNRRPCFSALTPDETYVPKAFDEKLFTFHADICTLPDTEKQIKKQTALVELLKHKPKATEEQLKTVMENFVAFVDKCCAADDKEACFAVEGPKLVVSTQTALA

[4] = target: T3, Albumin; assay: Binding affinity to bovine serum albumin at 8.9 uM by fluorescence assay; assay type: ADME; settings: cattle, isolated protein

Structure (SMILES) | IC50 [1] [µM] | IC50 [2] [µM] | Activity [3] [%] | Activity [4] [%]
O=C(/C=C/c1ccc2c(c1)OCO2)N1CCOCC1 | > 100 | 6.39 | – | –
O=C(/C=C/c1ccc2c(c1)OCO2)NC1CCCC1 | > 100 | 1.13 | – | –
O=C(CN1CCCCC1)c1ccc2c(c1)OCO2 | > 100 | 3.18 | – | –
O=C(/C=C/c1ccc2c(c1)OCO2)NC1CCCCC1 | > 100 | 0.666 | – | –
CC1CCN(C(=O)/C=C/c2ccc3c(c2)OCO3)CC1 | > 100 | 0.497 | 50 | –
O=C(/C=C/C=C/c1ccc2c(c1)OCO2)N1CCCCC1 [PIPERINE] | 59 | 0.483 | – | 50

More lines, now with the values ahead:

IC50 [1] [µM] | IC50 [2] [µM] | Activity [3] [%] | Activity [4] [%] | Structure (SMILES)
> 100 | 15.4 | – | – | S=C(c1ccc2c(c1)OCO2)N1CCCCC1
> 100 | 3.43 | – | – | O=C(CCN1CCCCC1)c1ccc2c(c1)OCO2
> 100 | 4.89 | – | – | O=C(/C=C/c1ccc2c(c1)OCO2)N1CCCC1
> 100 | > 100 | – | – | O=C(c1ccc2c(c1)OCO2)N1CCCCCC1
